Measurements published in patent US10676465B2, “GLP-1 receptor agonists and uses thereof” (Pfizer Inc., priority 2018, dated 2020).

Assays:
human GLP-1R [1] = target: human GLP-1R (Homo sapiens (Human), UniProt P43220, L260F); assay: CHO GLP-1R Clone C6 - Assay 2 (HTRF cAMP agonist assay, low receptor density); details: for EC50: read-out: Assay 2 EC50, CHO GLP-1R Clone C6 (low receptor density), cAMP HTRF, geometric mean; for Emax: read-out: Assay 2 Emax (%), CHO GLP-1R Clone C6 (low receptor density), arithmetic mean, relative to saturating GLP-1 (1 μM)
human GLP-1R (Homo sapiens (Human), UniProt P43220, L260F), sequence (P43220 24-463 L260F): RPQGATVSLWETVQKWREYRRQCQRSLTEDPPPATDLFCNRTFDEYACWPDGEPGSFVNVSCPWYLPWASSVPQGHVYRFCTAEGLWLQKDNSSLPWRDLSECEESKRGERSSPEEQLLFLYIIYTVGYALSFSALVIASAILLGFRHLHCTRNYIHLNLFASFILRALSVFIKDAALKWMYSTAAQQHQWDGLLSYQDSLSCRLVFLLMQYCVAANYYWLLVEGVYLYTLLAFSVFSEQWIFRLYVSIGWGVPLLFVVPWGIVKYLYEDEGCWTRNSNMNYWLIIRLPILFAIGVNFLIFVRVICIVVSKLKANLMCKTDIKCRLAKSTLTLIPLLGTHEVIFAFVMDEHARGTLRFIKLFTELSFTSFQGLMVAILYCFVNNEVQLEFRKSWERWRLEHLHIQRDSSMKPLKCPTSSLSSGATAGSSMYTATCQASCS

human GLP-1R [2] = target: human GLP-1R (Homo sapiens, UniProt P43220, G168S); assay: CHO GLP-1R Clone H6 - Assay 1 (HTRF cAMP agonist assay); type: cell-based; details: for EC50: CHO GLP-1R Clone H6, cAMP HTRF, geometric mean; for Emax: CHO GLP-1R Clone H6, arithmetic mean, relative to saturating GLP-1 (1 μM)
human GLP-1R (Homo sapiens, UniProt P43220, G168S), sequence (P43220 24-463 G168S limits assumed): as the sequence (P43220 24-463 L260F) above, with G145S, F237L counted along it
Protocol: GLP-1R-mediated agonist activity was determined with a cell-based functional assay utilizing an HTRF (Homogeneous Time-Resolved Fluorescence) cAMP detection kit (cAMP HI Range Assay Kit; CisBio cat #62AM6PEJ) that measures cAMP levels in the cell. The method is a competitive immunoassay between native cAMP produced by the cells and exogenous cAMP labeled with the dye d2. The tracer binding is visualized by a mAb anti-cAMP labeled with Cryptate. The specific signal (i.e. energy transfer) is inversely proportional to the concentration of cAMP in either standard or experimental sample.
The human GLP-1R coding sequence (NCBI Reference Sequence NP_002053.3, including naturally-occurring variant Gly168Ser) was subcloned into pcDNA3 (Invitrogen) and a cell line stably expressing the receptor was isolated (designated Clone H6).
Cells were removed from cryopreservation, re-suspended in 40 mL of Dulbecco's Phosphate Buffered Saline (DPBS—Lonza Cat #17-512Q) and centrifuged at 800×g for 5 minutes at 22° C. The cell pellet was then re-suspended in 10 mL of growth medium [DMEM/F12 1:1 Mixture with HEPES, L-Gln, 500 mL (DMEM/F12 Lonza Cat #12-719F), 10% heat inactivated fetal bovine serum (Gibco Cat #16140-071), 5 mL of 100× Pen-Strep (Gibco Cat #15140-122), 5 mL of 100×L-Glutamine (Gibco Cat #25030-081) and 500 μg/mL Geneticin (G418) (Invitrogen #10131035)]. A 1 mL sample of the cell suspension in growth media was counted on a Becton Dickinson ViCell to determine cell viability and cell count per mL. The remaining cell suspension was then adjusted with growth media to deliver 2000 viable cells per well using a Matrix Combi Multidrop reagent dispenser, and the cells were dispensed into a white 384 well tissue culture treated assay plate (Corning 3570). The assay plate was then incubated for 48 hours at 37° C. in a humidified environment in 5% carbon dioxide.
Varying concentrations of each compound to be tested (in DMSO) were diluted in assay buffer (HBSS with Calcium/Magnesium (Lonza/BioWhittaker cat #10-527F)/0.1% BSA (Sigma Aldrich cat # A7409-1L)/20 mM HEPES (Lonza/BioWhittaker cat #17-737E) containing 100 μM 3-isobutyl-1-methylxanthin (IBMX; Sigma cat #15879). The final DMSO concentration is 1%.
After 48 hours, the growth media was removed from the assay plate wells, and the cells were treated with 20 μL of the serially diluted compound in assay buffer for 30 minutes at 37° C. in a humidified environment in 5% carbon dioxide. Following the 30 minute incubation, 10 μL of labeled d2 cAMP and 10 μL of anti-cAMP antibody (both diluted 1:20 in cell lysis buffer; as described in the manufacturer's assay protocol) were added to each well of the assay plate. The plates were then incubated at room temperature and after 60 minutes, changes in the HTRF signal were read with an Envision 2104 multi-label plate reader using excitation of 330 nm and emissions of 615 and 665 nm. Raw data were converted to nM cAMP by interpolation from a cAMP standard curve (as described in the manufacturer's assay protocol) and the percent effect was determined relative to a saturating concentration of the full agonist GLP-17-36 (1 μM) included on each plate. EC50 determinations were made from agonist dose-response curves analyzed with a curve fitting program using a 4-parameter logistic dose response equation.

SMILES	EC50 (human GLP-1R [1])	Emax (human GLP-1R [1])	EC50 (human GLP-1R [2])	Emax (human GLP-1R [2])
CC1(c2ccc(Cl)cc2F)Oc2cccc(C3CCN(Cc4nc5ccc(C(=O)O)cc5n4Cc4cocn4)CC3)c2O1 (stereo not drawn) [Example 58, 2-({4-[2-(4-chloro-2-fluorophenyl)-2-methyl-1,3-benzodioxol-4-yl]piperidin-1-yl}methyl)-1-(1,3-oxazol-4-ylmethyl)-1H-benzimidazole-6-carboxylic acid]	23 nM	88%	4 nM	98%
CN(C)C(=O)CCn1c(CN2CCC(c3cccc4c3OC(C)(c3ccc(Cl)cc3F)O4)CC2)nc2ccc(C(=O)O)cc21 (stereo not drawn) [Example 59, 2-({4-[2-(4-chloro-2-fluorophenyl)-2-methyl-1,3-benzodioxol-4-yl]piperidin-1-yl}methyl)-1-[3-(dimethylamino)-3-oxopropyl]-1H-benzimidazole-6-carboxylic acid]	680 nM	53%	74 nM	85%
Cn1cc(CCn2c(CN3CCC(c4cccc5c4OC(C)(c4ccc(Cl)cc4F)O5)CC3)nc3ccc(C(=O)O)cc32)nn1 (stereo not drawn) [Example 60, 2-({4-[2-(4-chloro-2-fluorophenyl)-2-methyl-1,3-benzodioxol-4-yl]piperidin-1-yl}methyl)-1-[2-(1-methyl-1H-1,2,3-triazol-4-yl)ethyl]-1H-benzimidazole-6-carboxylic acid]	240 nM	60%	15 nM	82%
CC1(c2ccc(Cl)cc2F)Oc2cccc(C3CCN(Cc4nc5ccc(C(=O)O)cc5n4C4CCOC4)CC3)c2O1 (stereo not drawn) [Example 61, 2-({4-[2-(4-chloro-2-fluorophenyl)-2-methyl-1,3-benzodioxol-4-yl]piperidin-1-yl}methyl)-1-(tetrahydrofuran-3-yl)-1H-benzimidazole-6-carboxylic acid]	240 nM	85%	10 nM	79%
Cc1nccn1CCn1c(CN2CCC(c3cccc4c3OC(C)(c3ccc(Cl)cc3F)O4)CC2)nc2ccc(C(=O)O)cc21 (stereo not drawn) [Example 62, 2-({4-[2-(4-chloro-2-fluorophenyl)-2-methyl-1,3-benzodioxol-4-yl]piperidin-1-yl}methyl)-1-[2-(2-methyl-1H-imidazol-1-yl)ethyl]-1H-benzimidazole-6-carboxylic acid]	82 nM	95%	2.2 nM	94%
Cn1cc(Cn2c(CN3CCC(c4cccc5c4OC(C)(c4ccc(Cl)cc4F)O5)CC3)nc3ccc(C(=O)O)cc32)nn1 (stereo not drawn) [Example 63, 2-({4-[2-(4-chloro-2-fluorophenyl)-2-methyl-1,3-benzodioxol-4-yl]piperidin-1-yl}methyl)-1-[(1-methyl-1H-1,2,3-triazol-4-yl)methyl]-1H-benzimidazole-6-carboxylic acid]	66 nM	96%	5.2 nM	91%
CC1(c2ccc(Cl)cc2F)Oc2cccc(C3CCN(Cc4nc5ccc(C(=O)O)cc5n4C[C@H]4CCCO4)CC3)c2O1 (stereo partly drawn) [Example 64, 2-({4-[2-(4-chloro-2-fluorophenyl)-2-methyl-1,3-benzodioxol-4-yl]piperidin-1-yl}methyl)-1-[(2R)-tetrahydrofuran-2-ylmethyl]-1H-benzimidazole-6-carboxylic acid]	91 nM	80%	9.2 nM	94%
CC1(c2ccc(Cl)cc2F)Oc2cccc(C3CCN(Cc4nc5ccc(C(=O)O)cc5n4Cc4cccnc4)CC3)c2O1 (stereo not drawn) [Example 65, 2-({4-[2-(4-chloro-2-fluorophenyl)-2-methyl-1,3-benzodioxol-4-yl]piperidin-1-yl}methyl)-1-(pyridin-3-ylmethyl)-1H-benzimidazole-6-carboxylic acid]	11 nM	99%	1.2 nM	99%
CN(C)C(=O)Cn1c(CN2CCC(c3cccc4c3OC(C)(c3ccc(Cl)cc3F)O4)CC2)nc2ccc(C(=O)O)cc21 (stereo not drawn) [Example 66, 2-({4-[2-(4-chloro-2-fluorophenyl)-2-methyl-1,3-benzodioxol-4-yl]piperidin-1-yl}methyl)-1-[2-(dimethylamino)-2-oxoethyl]-1H-benzimidazole-6-carboxylic acid]	850 nM	74%	51 nM	82%
COCc1cc(Cn2c(CN3CCC(c4cccc5c4OC(C)(c4ccc(Cl)cc4F)O5)CC3)nc3ccc(C(=O)O)cc32)[nH]n1 (stereo not drawn) [Example 68, 2-({4-[2-(4-chloro-2-fluorophenyl)-2-methyl-1,3-benzodioxol-4-yl]piperidin-1-yl}methyl)-1-{[3-(methoxymethyl)-1H-pyrazol-5-yl]methyl}-1H-benzimidazole-6-carboxylic acid]	1200 nM	94%	73 nM	89%
CC1(c2ccc(Cl)cc2F)Oc2cccc(C3CCN(Cc4nc5ccc(C(=O)O)cc5n4Cc4cnco4)CC3)c2O1 (stereo not drawn) [Example 69, 2-({4-[2-(4-chloro-2-fluorophenyl)-2-methyl-1,3-benzodioxol-4-yl]piperidin-1-yl}methyl)-1-(1,3-oxazol-5-ylmethyl)-1H-benzimidazole-6-carboxylic acid]	8.3 nM	98%	10 nM	100%
COCCn1cnnc1Cn1c(CN2CCC(c3cccc4c3OC(C)(c3ccc(Cl)cc3F)O4)CC2)nc2ccc(C(=O)O)cc21 (stereo not drawn) [Example 70, 2-({4-[2-(4-chloro-2-fluorophenyl)-2-methyl-1,3-benzodioxol-4-yl]piperidin-1-yl}methyl)-1-{[4-(2-methoxyethyl)-4H-1,2,4-triazol-3-yl]methyl}-1H-benzimidazole-6-carboxylic acid]	97 nM	100%	2.8 nM	100%
CN(CCn1c(CN2CCC(c3cccc4c3OC(C)(c3ccc(Cl)cc3F)O4)CC2)nc2ccc(C(=O)O)cc21)S(C)(=O)=O (stereo not drawn) [Example 71, 2-({4-[2-(4-chloro-2-fluorophenyl)-2-methyl-1,3-benzodioxol-4-yl]piperidin-1-yl}methyl)-1-{2-[methyl(methylsulfonyl)amino]ethyl}-1H-benzimidazole-6-carboxylic acid]	74 nM	80%	6.8 nM	80%
CC1(c2ccc(Cl)cc2F)Oc2cccc(C3CCN(Cc4nc5ccc(C(=O)O)cc5n4CC4(O)CCC4)CC3)c2O1 (stereo not drawn) [Example 72, 2-({4-[2-(4-chloro-2-fluorophenyl)-2-methyl-1,3-benzodioxol-4-yl]piperidin-1-yl}methyl)-1-[(1-hydroxycyclobutyl)methyl]-1H-benzimidazole-6-carboxylic acid]	310 nM	80%	14 nM	76%
CC1(c2ccc(Cl)cc2F)Oc2cccc(C3CCN(Cc4nc5ccc(C(=O)O)cc5n4Cc4cn[nH]c4)CC3)c2O1 (stereo not drawn) [Example 73, 2-({4-[2-(4-chloro-2-fluorophenyl)-2-methyl-1,3-benzodioxol-4-yl]piperidin-1-yl}methyl)-1-(1H-pyrazol-4-ylmethyl)-1H-benzimidazole-6-carboxylic acid]	10 nM	100%	1.7 nM	98%
